Five compounds from patent publication US20240067693A1, “POLYPEPTIDES AND USES THEREOF” (MEDIMMUNE LIMITED, priority 2020, published 2024) can be followed below.

The structures appear in SMILES notation. Numbered stars: 1 amine (or outer) side, 2 acyl side, 3 side chain; on linkers, the order of the positions; unused ones are H or OH. Bridge positions count the residues as written; N and C are the ends. Square brackets hold non-standard residues; d marks the D form. Side chains are listed from the residue outwards. Peptide text beside a SMILES is read from it. * marks the point of attachment. C18 diacid = O=C(O)CCCCCCCCCCCCCCCCC(=O)*; γGlu = O=C(O)[C@H](CCC(=O)[*:2])N[*:1]; Aib = CC(C)(N)C(=O)O

In assay [1] the target is T1, human calcitonin receptor (hCTR) (Homo sapiens, UniProt P30988).
T1 construct: expressed in transfected cells
T1 sequence (P30988 25-474): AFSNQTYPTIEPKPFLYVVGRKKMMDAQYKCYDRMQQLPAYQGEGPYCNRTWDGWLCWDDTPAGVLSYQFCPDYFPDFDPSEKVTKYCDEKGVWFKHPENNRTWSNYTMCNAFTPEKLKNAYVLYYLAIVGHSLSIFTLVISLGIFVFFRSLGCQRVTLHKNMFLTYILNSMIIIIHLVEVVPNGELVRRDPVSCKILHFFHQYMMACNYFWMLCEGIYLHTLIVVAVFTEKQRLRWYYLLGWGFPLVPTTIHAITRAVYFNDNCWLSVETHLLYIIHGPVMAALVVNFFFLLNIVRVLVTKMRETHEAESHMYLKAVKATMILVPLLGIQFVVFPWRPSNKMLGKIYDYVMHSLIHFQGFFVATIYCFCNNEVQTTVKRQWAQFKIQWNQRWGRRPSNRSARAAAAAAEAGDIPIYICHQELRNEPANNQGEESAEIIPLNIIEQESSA
The assay can be described thus: cAMP production in 1321N1 cells with stable recombinant expression of human calcitonin receptor (hCTR). The settings on record: cAMP, 1321N1 cells, assay buffer with 0.1% BSA; read-out: EC50 (pM) hCTR. Type of assay: cell-based. Summed up: (§1)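 EC50 values come from 4-parameter logistic fits of HTRF cAMP signal, normalised to maximal calcitonin or amylin effect. Peptides were tested in duplicate for 30 min at RT in IBMX-containing (0.5 mM) BSA/HEPES buffer pH 7.4 on stable 1321N1 (human CTR, AMYR3) or HEK (rat CTR, AMYR3) lines.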
In general terms: Changes in cAMP serve as a functional read-out for many G protein-coupled receptors.

The target in assay [2] is T2, human amylin receptor (calcitonin receptor co-expressed with receptor activity modifying protein, RAMP3) (hAMYR3) (Homo sapiens, UniProt O60896+P30988).
T2 construct: expressed in transfected cells
T2 sequence (P30988 25-474): T1 sequence (P30988 25-474)
T2 sequence (O60896 24-148 partner): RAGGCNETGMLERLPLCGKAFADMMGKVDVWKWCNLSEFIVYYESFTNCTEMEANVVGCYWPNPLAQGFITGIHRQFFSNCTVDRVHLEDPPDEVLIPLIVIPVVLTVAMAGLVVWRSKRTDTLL
Put plainly: cAMP production in 1321N1 cells with stable recombinant expression of human amylin receptor (hAMYR3). Type of assay: cell-based. To be noted: for Ratio (selectivity hAMYR vs hCTR, ratio of EC50 values at the two receptors): EC50 hCTR / EC50 hAMYR3; for EC50: cAMP, 1321N1 cells, assay buffer with 0.1% BSA, read-out: EC50 (pM) hAMYR3. In outline:
as §1

As a reminder, the EC50 is the concentration needed to bring the measured effect to its halfway point.

Turning to `CC[C@H](C)[C@H](NC(=O)[C@@H]1CCCN1C(=O)CNC(=O)[C@H](Cc1ccccc1)NC(=O)[C@H](CC(N)=O)NC(=O)C(C)(C)NC(=O)[C@H](CO)NC(=O)[C@H](CO)NC(=O)[C@H](Cc1c[nH]cn1)NC(=O)[C@@H](NC(=O)[C@H](CC(C)C)NC(=O)[C@H](Cc1ccccc1)NC(=O)[C@H](CC(N)=O)NC(=O)[C@H](C)NC(=O)[C@H](CC(C)C)NC(=O)[C@H](CCCNC(=N)N)NC(=O)[C@H](CCC(N)=O)NC(=O)[C@@H](NC(=O)[C@H](C)NC(=O)[C@@H]1CSSC[C@H](NC(=O)[C@@H](N)CCCCNC(=O)CC[C@H](NC(=O)CCCCCCCCCCCCCCCCC(=O)O)C(=O)O)C(=O)N[C@@H](CC(N)=O)C(=O)N[C@@H]([C@@H](C)O)C(=O)N[C@@H](C)C(=O)N[C@@H]([C@@H](C)O)C(=O)N1)[C@@H](C)O)C(C)C)C(=O)N[C@H](CC(C)C)C(=O)N1CCC[C@H]1C(=O)N1CCC[C@H]1C(=O)N[C@H](C(=O)N[C@@H](CC(N)=O)C(=O)N[C@H](C(=O)NCC(=O)N[C@@H](CO)C(=O)N[C@@H](CC(N)=O)C(=O)N[C@H](C(=O)N[C@@H](Cc1ccc(O)cc1)C(N)=O)[C@@H](C)O)C(C)C)[C@@H](C)O` [Peptide 59, K(γE-C18diacid)[CNTATC]ATQRLANFLVHSS(Aib)NFGPI(dL)PPTNVGSNTY-amide] (H-K([γGlu-C18 diacid])CNTATCATQRLANFLVHSS[Aib]NFGPI[dL]PPTNVGSNTY-NH2; disulfide 2-7; N-terminus assumed), the figures for the EC50 in assay [1] and in assay [2] were 809 pM and 157 pM, respectively. In addition, in assay [2], the “Ratio (selectivity hAMYR vs hCTR, ratio of EC50 values at the two receptors)” value was found to be 5.

On to `CC[C@H](C)[C@H](NC(=O)[C@@H]1CCCN1C(=O)CNC(=O)[C@H](Cc1ccccc1)NC(=O)[C@H](CC(N)=O)NC(=O)C(C)(C)NC(=O)[C@H](CO)NC(=O)[C@H](CO)NC(=O)[C@H](Cc1c[nH]cn1)NC(=O)[C@@H](NC(=O)[C@H](CC(C)C)NC(=O)[C@H](Cc1ccccc1)NC(=O)[C@H](CC(N)=O)NC(=O)[C@H](C)NC(=O)[C@H](CC(C)C)NC(=O)[C@H](CCCNC(=N)N)NC(=O)[C@H](CCC(N)=O)NC(=O)[C@@H](NC(=O)[C@H](C)NC(=O)[C@@H]1CSSC[C@H](NC(=O)[C@@H](N)CCCCNC(=O)CC[C@H](NC(=O)CCCCCCCCCCCCCCCCC(=O)O)C(=O)O)C(=O)N[C@@H](CC(N)=O)C(=O)N[C@@H]([C@@H](C)O)C(=O)N[C@@H](C)C(=O)N[C@@H]([C@@H](C)O)C(=O)N1)[C@@H](C)O)C(C)C)C(=O)N[C@@H](CC(C)C)C(=O)N1CCC[C@@H]1C(=O)N1CCC[C@H]1C(=O)N[C@H](C(=O)N[C@@H](CC(N)=O)C(=O)N[C@H](C(=O)NCC(=O)N[C@@H](CO)C(=O)N[C@@H](CC(N)=O)C(=O)N[C@H](C(=O)N[C@@H](Cc1ccc(O)cc1)C(N)=O)[C@@H](C)O)C(C)C)[C@@H](C)O` [Peptide 60, K(γE-C18diacid)[CNTATC]ATQRLANFLVHSS(Aib)NFGPIL(dP)PTNVGSNTY-amide] (H-K([γGlu-C18 diacid])CNTATCATQRLANFLVHSS[Aib]NFGPIL[dP]PTNVGSNTY-NH2; disulfide 2-7; N-terminus assumed), for which the EC50 in assay [1] was 1030 pM; in assay [2] it was 96 pM. Further, the “Ratio (selectivity hAMYR vs hCTR, ratio of EC50 values at the two receptors)” value in assay [2] worked out at 11.

As for `CC[C@@H](C)[C@@H](NC(=O)[C@@H]1CCCN1C(=O)CNC(=O)[C@H](Cc1ccccc1)NC(=O)[C@H](CC(N)=O)NC(=O)C(C)(C)NC(=O)[C@H](CO)NC(=O)[C@H](CO)NC(=O)[C@H](Cc1c[nH]cn1)NC(=O)[C@@H](NC(=O)[C@H](CC(C)C)NC(=O)[C@H](Cc1ccccc1)NC(=O)[C@H](CC(N)=O)NC(=O)[C@H](C)NC(=O)[C@H](CC(C)C)NC(=O)[C@H](CCCNC(=N)N)NC(=O)[C@H](CCC(N)=O)NC(=O)[C@@H](NC(=O)[C@H](C)NC(=O)[C@@H]1CSSC[C@H](NC(=O)[C@@H](N)CCCCNC(=O)CC[C@H](NC(=O)CCCCCCCCCCCCCCCCC(=O)O)C(=O)O)C(=O)N[C@@H](CC(N)=O)C(=O)N[C@@H]([C@@H](C)O)C(=O)N[C@@H](C)C(=O)N[C@@H]([C@@H](C)O)C(=O)N1)[C@@H](C)O)C(C)C)C(=O)N[C@@H](CC(C)C)C(=O)N1CCC[C@H]1C(=O)N1CCC[C@H]1C(=O)N[C@H](C(=O)N[C@@H](CC(N)=O)C(=O)N[C@H](C(=O)NCC(=O)N[C@@H](CO)C(=O)N[C@@H](CC(N)=O)C(=O)N[C@H](C(=O)N[C@@H](Cc1ccc(O)cc1)C(N)=O)[C@@H](C)O)C(C)C)[C@@H](C)O` [Peptide 61, K(γE-C18diacid)[CNTATC]ATQRLANFLVHSS(Aib)NFGP(dl)LPPTNVGSNTY-amide] (H-K([γGlu-C18 diacid])CNTATCATQRLANFLVHSS[Aib]NFGP[dI]LPPTNVGSNTY-NH2; disulfide 2-7; N-terminus assumed), in assay [1], the EC50 was found to be 654 pM. Besides, in assay [2], the “Ratio (selectivity hAMYR vs hCTR, ratio of EC50 values at the two receptors)” value came out at 7 and the EC50 was determined as 99 pM.

Consider `CC[C@H](C)[C@H](NC(=O)[C@@H]1CCCN1C(=O)CNC(=O)[C@H](Cc1ccccc1)NC(=O)[C@H](CC(N)=O)NC(=O)C(C)(C)NC(=O)[C@H](CO)NC(=O)[C@H](CO)NC(=O)[C@H](Cc1c[nH]cn1)NC(=O)[C@@H](NC(=O)[C@@H](CC(C)C)NC(=O)[C@H](Cc1ccccc1)NC(=O)[C@H](CC(N)=O)NC(=O)[C@H](C)NC(=O)[C@H](CC(C)C)NC(=O)[C@H](CCCNC(=N)N)NC(=O)[C@H](CCC(N)=O)NC(=O)[C@@H](NC(=O)[C@H](C)NC(=O)[C@@H]1CSSC[C@H](NC(=O)[C@@H](N)CCCCNC(=O)CC[C@H](NC(=O)CCCCCCCCCCCCCCCCC(=O)O)C(=O)O)C(=O)N[C@@H](CC(N)=O)C(=O)N[C@@H]([C@@H](C)O)C(=O)N[C@@H](C)C(=O)N[C@@H]([C@@H](C)O)C(=O)N1)[C@@H](C)O)C(C)C)C(=O)N[C@@H](CC(C)C)C(=O)N1CCC[C@H]1C(=O)N1CCC[C@H]1C(=O)N[C@H](C(=O)N[C@@H](CC(N)=O)C(=O)N[C@H](C(=O)NCC(=O)N[C@@H](CO)C(=O)N[C@@H](CC(N)=O)C(=O)N[C@H](C(=O)N[C@@H](Cc1ccc(O)cc1)C(N)=O)[C@@H](C)O)C(C)C)[C@@H](C)O` [Peptide 62, K(γE-C18diacid)[CNTATC]ATQRLANF(dL)VHSS(Aib)NFGPILPPTNVGSNTY-amide] (H-K([γGlu-C18 diacid])CNTATCATQRLANF[dL]VHSS[Aib]NFGPILPPTNVGSNTY-NH2; disulfide 2-7), for which the EC50 in assay [1] was found to be 7250 pM. Also, in assay [2], the “Ratio (selectivity hAMYR vs hCTR, ratio of EC50 values at the two receptors)” value is given as 43 and the EC50 was 167 pM.

On to `CC[C@H](C)[C@H](NC(=O)[C@@H]1CCCN1C(=O)CNC(=O)[C@H](Cc1ccccc1)NC(=O)[C@H](CC(N)=O)NC(=O)C(C)(C)NC(=O)[C@H](CO)NC(=O)[C@H](CO)NC(=O)[C@H](Cc1c[nH]cn1)NC(=O)[C@@H](NC(=O)[C@H](CC(C)C)NC(=O)[C@H](Cc1ccccc1)NC(=O)[C@H](CC(N)=O)NC(=O)[C@H](C)NC(=O)[C@H](CC(C)C)NC(=O)[C@H](CCCNC(=N)N)NC(=O)[C@H](CCC(N)=O)NC(=O)[C@@H](NC(=O)[C@H](C)NC(=O)[C@@H]1CSSC[C@H](NC(=O)[C@@H](N)CCCCNC(=O)CC[C@H](NC(=O)CCCCCCCCCCCCCCCCC(=O)O)C(=O)O)C(=O)N[C@@H](CC(N)=O)C(=O)N[C@@H]([C@@H](C)O)C(=O)N[C@@H](C)C(=O)N[C@@H]([C@@H](C)O)C(=O)N1)[C@@H](C)O)C(C)C)C(=O)N[C@@H](CC(C)C)C(=O)N1CCC[C@H]1C(=O)N1CCC[C@H]1C(=O)N[C@H](C(=O)N[C@@H](CCCNC(=N)N)C(=O)N[C@H](C(=O)NCC(=O)N[C@@H](CO)C(=O)N[C@@H](CC(N)=O)C(=O)N[C@H](C(=O)N[C@@H](Cc1ccc(O)cc1)C(N)=O)[C@@H](C)O)C(C)C)[C@@H](C)O` [Peptide 63, K(γE-C18diacid)[CNTATC]ATQRLANFLVHSS(Aib)NFGPILPPTRVGSNTY-amide] (H-K([γGlu-C18 diacid])CNTATCATQRLANFLVHSS[Aib]NFGPILPPTRVGSNTY-NH2; disulfide 2-7; N-terminus assumed), for which the EC50 in assay [1] was determined as 375 pM. In addition, in assay [2], the “Ratio (selectivity hAMYR vs hCTR, ratio of EC50 values at the two receptors)” value came out at 5 and the EC50 turned out to be 76 pM.
